Test results published in patent publication US5574043A, “Certain [1,2,5-thiadiazol-4-yl]-1-azabicyclo [3.2.1]octane derivatives and their pharmaceutical uses” (Novo Nordisk A/S, priority 1995, dated 1996).
Where a name gives a salt, the structure may show the parent alone.

Test system: not given
Experiment: not given
Settings: in vivo; cited from earlier work

| SMILES | biological half life |
| --- | --- |
| COC(=O)C1=CCCN(C)C1 [Arecoline, methyl 1-methyl-1,2,5,6-tetrahydropyridine-3carboxylate] | very short |

Test system: central and peripheral muscarinic effects
Experiment: not given
Settings: cited from earlier work

| SMILES | separation between central and peripheral muscarinic effects |
| --- | --- |
| COC(=O)C1=CCCN(C)C1 [Arecoline, methyl 1-methyl-1,2,5,6-tetrahydropyridine-3carboxylate] | small separation |

Biological target: muscarinic acetylcholine receptors
Experiment: Inhibition of specific binding of 3H-Oxotremorine-M (OXO BINDING) in vitro, rat cortex
Parameters: species or system male Wistar rats
Settings: rat cortex homogenate, 3H-Oxotremorine 1.0 nM, 30 min at 25° C., pH 7.4
How it was run: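 Washed male Wistar rat cortex membranes in 20 mM Hepes pH 7.4 incubated 30 min at 25° C with 1.0 nM ³H-Oxotremorine-M (final) and test compound; nonspecific binding with 1 μg/ml arecoline. Filtration and scintillation counting; IC50 (ng/ml) for specific binding calculated assuming mass-action kinetics.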

| SMILES | Inhibition in vitro OXO BINDING IC50 [ng/mL] |
| --- | --- |
| CCCCSc1nsnc1[C@@H]1CN2CCC[C@@H]1C2 (single isomer, unassigned) [Compound 111, (+)-Exo-6-(3-butylthio-1,2,5-thiadiazol-4-yl)-1-azabicyclo[3.2.1]octane (+) L-tartrate] | 0.32 |
| c1ccc(CSc2nsnc2[C@H]2CN3CCC[C@H]2C3)cc1 (relative stereo) [Compound 134, Exo-6-(3-benzylthio-1,2,5-thiadiazol-4-yl)-1-azabicyclo[3.2.1]octane oxalate] | 0.47 |
| CCCCOc1nsnc1C1=C(Cl)C2CCCN(C1)C2.O=C(O)C(=O)O (stereo not drawn) [Compound 93, 4-Chloro-3-(3-butoxy-1,2,5-thiadiazol-4-yl)-1-azabicyclo[3.3.1]non-3-ene oxalate] | 9.0 |
| CCCSc1nsnc1[C@H]1CN2CCC[C@@H]1C2 (relative stereo) [Compound 57, Endo-6-(3-propylthio-1,2,5-thiadiazol-4-yl)-1-azabicyclo[3.2.1]octane oxalate] | 4.6 |
| O=C(O)/C=C/C(=O)O.c1nsnc1C1CN2CCC1CC2 (stereo not drawn) [Compound 132, 3-(1,2,5-Thiadiazol-3-yl)-1-azabicyclo[2.2.2]octane fumarate] | 0.96 |
| c1ccc(OCCSc2nsnc2[C@@H]2CN3CCC[C@H]2C3)cc1 (relative stereo) [Compound 84, Endo-6-(3-(2-phenoxyethylthio)-1,2,5-thiadiazol-4-yl)-1-azabicyclo[3.2.1]octane oxalate] | 13 |
| N#Cc1ccc(CSc2nsnc2C2CN3CCC2CC3)cc1.O=C(O)C(=O)O (stereo not drawn) [Compound 45, 3-(3-(4-Cyanobenzylthio)-1,2,5-thiadiazol-4-yl)-1-azabicyclo[2.2.2]octane oxalate] | 1.6 |
| CCCCCCSc1nsnc1C12CCCN(CC1)C2.O=C(O)C(=O)O (stereo not drawn) [Compound 68, 5-(3-Hexylthio-1,2,5-thiadiazol-4-yl)-1-azabicyclo[3.2.1]octane oxalate] | 0.69 |
| CCCCCCOc1nsnc1[C@@H]1CN2CCC[C@@H]1C2 (relative stereo) [Compound 122, Exo-6-(3-hexyloxy-1,2,5-thiadiazol-4-yl)-1-azabicyclo[3.2.1]octane oxalate] | 0.67 |
| CCCOc1nsnc1C1CN2CCC1CC2.O=C(O)/C=C/C(=O)O (stereo not drawn) [Compound 10, 3-(3-Propoxy-1,2,5-thiadiazol-4-yl)-1-azabicyclo[2.2.2]octane fumarate] | 1.7 |
| CC(C)CCCSc1nsnc1[C@H]1CN2CCC[C@H]1C2 (relative stereo) [Compound 76, Exo-6-(3-isohexylthio-1,2,5-thiadiazol-4-yl)-1-azabicyclo[3.2.1]octane oxalate] | 2.6 |
| CCSc1nsnc1[C@H]1CN2CCC[C@H]1C2 (relative stereo) [Compound 32, Exo-6-(3-ethylthio-1,2,5-thiadiazol-4-yl)-1-azabicyclo[3.2.1]octane oxalate] | 0.45 |
| CCC(C)Sc1nsnc1C1CN2CCC1CC2.O=C(O)/C=C/C(=O)O (stereo not drawn) [Compound 100, 3-(3-(1-Methylpropylthio)-1,2,5-thiadiazol-4-yl)-1-azabicyclo[2.2.2]octane fumarate] | 0.82 |
| CCCCCCSc1nsnc1C1CN2CCC1CC2.O=C(O)/C=C/C(=O)O (stereo not drawn) [Compound 14, 3-(3-Hexylthio-1,2,5-thiadiazol-4-yl)-1-azabicyclo[2.2.2]octane fumarate] | 4.8 |
| CCCCS(=O)(=O)c1nsnc1[C@@H]1CN2CCC[C@@H]1C2 (relative stereo) [Compound 115, Exo-6-(3-butylsulfonyl-1,2,5-thiadiazol-4-yl)-1-azabicyclo[3.2.1]octane oxalate] | 0.50 |
| C=CCCCCSc1nsnc1[C@H]1CN2CCC[C@@H]1C2 (relative stereo) [Compound 18, Endo-6-(3-(5-hexenylthio)-1,2,5-thiadiazol-4-yl)-1-azabicyclo[3.2.1]octane oxalate] | 7.5 |
| Cc1nnc(SCCCCSc2nsnc2C2CN3CCC2CC3)s1 (stereo not drawn) [Compound 107, oxalate] | 0.3 |
| Clc1nsnc1[C@@H]1CN2CCC[C@@H]1C2 (relative stereo) [Compound 15, Exo-6-(3-chloro-1,2,5-thiadiazol-4-yl)-1-azabicyclo[3.2.1]octane] | 0.61 |
| CCCCCCSc1nsnc1[C@H]1CN2CC[C@H]1C2 (relative stereo) [Compound 39, Exo-3-(3-hexylthio-1,2,5-thiadiazol-4-yl)-1-azabicyclo[2.2.1]heptane oxalate] | 0.52 |
| CCCCOc1nsnc1C1CN2CCC1CC2.O=C(O)C(=O)O (stereo not drawn) [Compound 46, 3-(3-Butoxy-1,2,5-thiadiazol-4-yl)-1-azabicyclo[2.2.2]octane oxalate] | 0.56 |
| c1ccc(CSc2nsnc2[C@H]2CN3CCC[C@@H]2C3)cc1 (relative stereo) [Compound 88, Endo-6-(3-benzylthio-1,2,5-thiadiazol-4-yl)-1-azabicyclo[3.2.1]octane oxalate] | 6.1 |
| CCCOc1nsnc1C1=C(Cl)C2CCCN(C1)C2 (stereo not drawn) [Compound 62, 4-Chloro-3-(3-propyloxy-1,2,5-thiadiazol-4-yl)-1-azabicyclo[3.3.1]non-3-eneoxalate] | 1.9 |
| c1ccc(CCCSc2nsnc2[C@H]2CN3CCC[C@H]2C3)cc1 (relative stereo) [Compound 83, Exo-6-(3-(3-phenylpropylthio)-1,2,5-thiadiazol-4-yl)-1-azabicyclo[3.2.1]octane oxalate] | 0.43 |
| O=C(O)/C=C/C(=O)O.c1ccc(OCCSc2nsnc2C2CN3CCC2CC3)cc1 (stereo not drawn) [Compound 102, 3-(3-(2-Phenoxyethylthio)-1,2,5-thiadiazol-4-yl)-1-azabicyclo[2.2.2]octane fumarate] | 1.52 |
| Clc1nsnc1C12CCCN(CC1)C2.O=C(O)C(=O)O (stereo not drawn) [Compound 67, 5-(3-Chloro-1,2,5-thiadiazol-4-yl)-1-azabicyclo[3.2.1]octane oxalate] | 0.43 |
